The results in this text go back to patent publication US8163777B2, “Benzimidazolyl-pyridine compounds for inflammation and immune-related uses” (Synta Pharmaceuticals Corp., priority 2006, dated 2012).

The subject of the test is IL-2 production. The experiment in a line: Inhibition of IL-2 production in PHA-activated Jurkat cells (ELISA). The settings on record: Homo sapiens, PHA 2.5 μg/mL, 20 hours. The format is cell-based. On the procedure: Jurkat cells were placed in a 96 well plate (0.5 million cells per well in 1% FBS medium) then test compounds of this invention were added at different concentrations. After 10 minutes, the cells were activated with PHA (final concentration 2.5 μg/mL) and incubated for 20 hours at 37° C. under CO2. The final volume was 200 μL. Following incubation, the cells were centrifuged and the supernatants collected and stored at −70° C. prior to assaying for IL-2 production. A commercial ELISA kit (IL-2 Eli-pair, Diaclone Research, Besancon, France) was used to detect production of IL-2, from which dose response curves were obtained. The IC50 value was calculated as the concentration at which 50% of maximum IL-2 production after stimulation was inhibited versus a non-stimulation control.

[1] abbreviates: bin given with mixed units 500 nM-1 μM.

`O=C(Nc1ccc(-n2c(C(F)(F)F)nc3ccccc32)c(Cl)c1)c1cccc(F)c1F` [Compound 25, 2,3-Difluoro-N-[2-.chloro-4-(2-trifluoromethyl-benzoimidazol-1-yl)-phenyl]-benzamide] yielded a half-maximal inhibitory concentration (IC50) (binned values) of 100 to 500 nM. `O=C(Nc1ccc(-n2c(C(F)(F)F)nc3ccccc32)nc1)c1cc(F)ccc1F` [Compound 41, 2,5-Difiuoro-N-[2-(2-trifluoromethyl-benzoimidazol-1-yl)-pyrid-5-yl]-benzamide] returned an IC50 under setting [1] of 500 to 1000 nM. `Cc1cc2nc(C(F)(F)F)n(-c3ccc(NC(=O)c4cccc(F)c4F)cc3)c2cc1C` [Compound 42, 2,3-Difluoro-N-[4-(2-trifluoromethyl-5,6-dimethyl-benzoimidazol-1-yl)-phenyl]-benzamide] had an IC50 under setting [1] of 500 to 1000 nM.

Under setting [1], `Nc1ccc(C(=O)Nc2ccc(-n3c(C(F)(F)F)nc4ccccc43)cc2)c(F)c1F` [Compound 43, 2,3-Difluoro-4-amino-N-[4-(2-trifluoromethyl-benzoimidazol-1-yl)-phenyl]-benzamide] came in with a half-maximal inhibitory concentration (IC50) of 500 to 1000 nM.

The compound `O=C(Nc1ccc(-n2c(C(F)(F)F)nc3cccnc32)cc1)c1cccc(F)c1F` [Compound 44, 2,3-Difluoro-N-[4-(2-trifiuoromethyl-imidazo[4,5-b]pyrid-3-yl)-phenyl]-benzamide] showed a half-inhibitory concentration (IC50) under setting [1] of 500 to 1000 nM. With `O=C(Nc1ccc(-n2c(C(F)(F)F)nc3ccccc32)cc1)c1cccnc1` [Compound 45, N-[4-(2-trifiuoromethyl-benzoimidazol-1-yl)-phenyl]-nicotinamide], the IC50 under setting [1] was 500 to 1000 nM. Same read-out and setting: with `O=C(Nc1cccc(F)c1F)c1ccc(-n2c(C(F)(F)F)nc3ccccc32)cc1` [Compound 46, N-(2,3-difluorophenyl)-4-(2-trifluoromethyl-benzoimidazol-1-yl)-benzamide] the figure was 500 to 1000 nM; with `N#C/C(=C\c1ccc(-n2c(C(F)(F)F)nc3ccccc32)cc1)c1cccc(F)c1F` [Compound 47, 1-(2,3-difluoro-phenyl)-3-[4-(2-trifluoromethyl-benzoimidazol-1-yl)-phenyl]-acrylonitrile], 500 to 1000 nM; with `N#C/C(=C\c1ccc(-n2c(C(F)(F)F)nc3ccccc32)cc1)c1cc(F)ccc1F` [Compound 48, 1-(2,5-difluoro-phenyl)-3-[4-(2-trifluoromethyl-benzoimidazol-1-yl)-phenyl]-acrylonitrile], 500 to 1000 nM. On the same count and under the same terms, next, `O=C(Nc1ccc(-n2c(C(F)(F)F)nc3cccnc32)cc1)c1cc(F)ccc1F` [Compound 56, 2,5-Difluoro-N-[4-(2-trifluoromethyl-imidazo[4,5-b]pyrid-3-yl)-phenyl]-benzamide]: 500 to 1000 nM.

As for `Cc1nc2ccccc2n1-c1ccc(NC(=O)c2cccc(F)c2F)cc1` [Compound 59, 2,3-Difluoro-N-[4-(2-methyl-benzoimidazol-1-yl)-phenyl]-benzamide], the IC50 (binned values) is above 1000 nM.

In turn, `COc1ccc2c(c1)nc(C(F)(F)F)n2-c1ccc(NC(=O)c2cc([N+](=O)[O-])cc([N+](=O)[O-])c2)cc1` [Compound 81, 3,5-Dinitro-N-[4-(2-trifluoromethyl-5-methoxy-benzoimidazol-1-yl)-phenyl]-benzamide] showed an IC50 (binned values) of 100 to 500 nM. Consider `COc1ccc2c(c1)nc(C(F)(F)F)n2-c1ccc(NC(=O)c2cccc(C(F)(F)F)c2)cc1` [Compound 91, 3-Trifluoromethyl-N-[4-(2-trifluoromethyl-5-methoxy-benzoimidazol-1-yl)-phenyl]-benzamide], for which, under setting [1], the half-inhibitory concentration (IC50) is 500 to 1000 nM. In the case of `COc1ccc(CC(=O)Nc2ccc(-n3c(C(F)(F)F)nc4cc(OC)ccc43)cc2)cc1` [Compound 92, 2-(4-Methoxy-phenyl)-N-[4-(2-trifluoromethyl-5-methoxy-benzoimidazol-1-yl)-phenyl]-acetamide], the IC50 under setting [1] fell in the range of 500 to 1000 nM. `CC(=O)Nc1ccc2nc(C(F)(F)F)n(-c3ccc(NC(=O)c4cccc(F)c4F)cc3)c2c1` [Compound 93, 2,3-Difluoro-N-[4-(2-trifluoromethyl-6-acetylamino-benzoimidazol-1-yl)-phenyl]-benzamide] came in with a concentration for half-maximal inhibition (IC50) under setting [1] of 500 to 1000 nM. `COc1ccc2c(c1)nc(C(F)(F)F)n2-c1ccc(NC(=O)Cc2cccs2)cc1` [Compound 94, 2-(Thien-2-yl)-N-[4-(2-trifluoromethyl-5-methoxy-benzoimidazol-1-yl)-phenyl]-acetamide]: the IC50 under setting [1] lay in the range of 500 to 1000 nM. `COc1ccc2c(c1)nc(C(F)(F)F)n2-c1ccc(NC(=O)Cc2ccccc2)cc1` [Compound 95, 2-phenyl-N-[4-(2-trifluoromethyl-5-methoxy-benzoimidazol-1-yl)-phenyl]-acetamide] came in with a half-inhibitory concentration (IC50) under setting [1] of 500 to 1000 nM. For the setting “binned values”, `CCNc1ccc(-n2c(C(F)(F)F)nc3cc(OC)ccc32)nc1` [Compound 162, Ethyl-[6-(5-methoxy-2-trifluoromethyl-benzoimidazol-1-yl)-pyridin-3-yl]-amine] returned a half-inhibitory concentration (IC50) above 1000 nM. Regarding `COc1ccc2c(c1)nc(C(F)(F)F)n2-c1ccc(NC(=O)c2c(F)cccc2F)nc1` [Compound 163, 2,6-difluoro-N-(5-(5-methoxy-2-(trifluoromethyl)-1H-benzo[d]imidazol-1-yl)pyridin-2-yl)benzamide], the concentration for half-maximal inhibition (IC50) (binned values) is below 100 nM. For `COc1ccc2c(c1)nc(C(F)(F)F)n2-c1ccc(NC(C)=O)nc1` [Compound 164, N-[5-(5-Methoxy-2-trifluoromethyl-benzoimidazol-1-yl)-pyridin-2-yl]-acetamide], the half-inhibitory concentration (IC50) (binned values) was above 1000 nM. On the same count and under the same terms, with `CCCCNc1ccc(-n2c(C(F)(F)F)nc3cc(OC)ccc32)cn1` [Compound 165, Butyl[5-(5-methoxy-2-trifluoromethyl-benzoimidazol-1-yl)-pyridin-2-yl]-amine] the figure was 100 to 500 nM; with `COc1ccc2c(c1)nc(C(F)(F)F)n2-c1ccc(NC(=O)c2ccc(C#N)cc2)nc1` [Compound 166, 4-Cyano-N-[5-(5-methoxy-2-trifluoromethyl-benzoimidazol-1-yl)-pyridin-2-yl]-benzamide], 100 to 500 nM. In turn, `CCCC(=O)Nc1ccc(-n2c(C(F)(F)F)nc3cc(OC)ccc32)cn1` [Compound 167, N-[5-(5-Methoxy-2-trifluoromethyl-benzoimidazol-1-yl)-pyridin-2-yl]-butyramide] gave an IC50 (binned values) of 100 to 500 nM.

In turn, `CCC(C)C(=O)Nc1ccc(-n2c(C(F)(F)F)nc3cc(OC)ccc32)cn1` (stereo not drawn) [Compound 168, N-[5-(5-Methoxy-2-trifluoromethyl-benzoimidazol-1-yl)-pyridin-2-yl]-2-methyl-butyramide] returned a concentration for half-maximal inhibition (IC50) (binned values) of 100 to 500 nM. As for `COc1ccc2c(c1)nc(C(F)(F)F)n2-c1ccc(NC(=O)C2CCC2)nc1` [Compound 169, Cyclobutanecarboxylic acid [5-(5-methox-2-trifluoromethyl-benzoimidazol-1-yl)-pyridin-2-yl]-amide], under setting [1], the IC50 is 500 to 1000 nM. Turning to `COc1ccc2c(c1)nc(C(F)(F)F)n2-c1ccc(NC(=O)c2ccc(F)cc2)nc1` [Compound 170, 4-Fluoro-N-[5-(5-methoxy-2-trifluoromethyl-benzoimidazol-1-yl)-pyridin-2-yl]-benzamide], where the note is “binned values”, the half-maximal inhibitory concentration (IC50) lay within 100 to 500 nM. As to `COc1ccc2c(c1)nc(C(F)(F)F)n2-c1ccc(NC(=O)c2ccc(Cl)cc2)nc1` [Compound 171, 4-Chloro-N-[5-(5-methoxy-2-trifluoromethyl-benzoimidazol-1-yl)-pyridin-2-yl]-benzamide], the IC50 under setting [1] lay in the range of 500 to 1000 nM. Regarding `COc1ccc2c(c1)nc(C(F)(F)F)n2-c1ccc(NC(=O)C2CC2)nc1` [Compound 172, Cyclopropanecarboxylic acid [5-(5-methoxy-2-trifluoromethyl-benzoimidazol-1-yl)-pyridin-2-yl]-amide], for the setting “binned values”, the IC50 is above 1000 nM. On the same count and under the same terms, next, `COc1ccc2c(c1)nc(C(F)(F)F)n2-c1ccc(NC(=O)c2c(F)cccc2Cl)nc1` [Compound 173, 2-Chloro-6-fluoro-N-[5-(5-methoxy-2-trifluoromethyl-benzoimidazol-1-yl)-pyridin-2-yl]-benzamide]: below 100 nM; `COc1ccc2c(c1)nc(C(F)(F)F)n2-c1ccc(NC(=O)c2cccc(Cl)c2Cl)nc1` [Compound 174, 2,3-Dichloro-N-[5-(5-methoxy-2-trifluoromethyl-benzoimidazol-1-yl)-pyridin-2-yl]-benzamide]: below 100 nM. For `COc1ccc2c(c1)nc(C(F)(F)F)n2-c1ccc(NC(=O)c2ccc(F)cc2F)nc1` [Compound 175], for the setting “binned values”, the IC50 is below 100 nM. The compound `COc1ccc2c(c1)nc(C(F)(F)F)n2-c1ccc(NC(=O)c2ccc(Cl)cc2Cl)nc1` [Compound 176, 2,4-Dichloro-N-[5-(5-methoxy-2-trifluoromethyl-benzoimidazol-1-yl)-pyridin-2-yl]-benzamide] gave a half-inhibitory concentration (IC50) (binned values) below 100 nM. Take `COc1ccc2c(c1)nc(C(F)(F)F)n2-c1ccc(NC(=O)c2ccc(Cl)cc2F)nc1` [Compound 177, 4-Chloro-2-fluoro-N-[5-(5-methoxy-2-trifluoromethyl-benzoimidazol-1-yl)-pyridin-2-yl]-benzamide]: the IC50 (binned values) was 100 to 500 nM. In turn, `COc1ccc2c(c1)nc(C(F)(F)F)n2-c1ccc(NC(=O)c2ccccc2Cl)nc1` [Compound 178, 2-Chloro-N-[5-(5-methoxy-2-trifluoromethyl-benzoimidazol-1-yl)-pyridin-2-yl]-benzamide] returned an IC50 (binned values) below 100 nM. The compound `COc1ccc2c(c1)nc(C(F)(F)F)n2-c1ccc(NC(=O)c2cccc(Cl)c2)nc1` [Compound 179, 3-Chloro-N-[5-(5-methoxy-2-trifluoromethyl-benzoimidazol-1-yl)-pyridin-2-yl]-benzamide] showed an IC50 (binned values) of 100 to 500 nM. Compound `COc1ccc2c(c1)nc(C(F)(F)F)n2-c1ccc(NC(=O)c2ccccc2Br)nc1` [Compound 180, 2-Bromo-N-[5-(5-methoxy-2-trifluoromethyl-benzoimidazol-1-yl)-pyridin-2-yl]-benzamide] displayed an IC50 (binned values) below 100 nM.
